In patent publication US20090099167A1, “Organic compounds” (Novartis Institutes for Biomedical Research, priority 2004, published 2009):

Legend:
Cdk1/cycB = Cdk1/cycB (UniProt P06493); test: Cdk1/cycB kinase assay, histone H1 substrate; format: biochemical, starfish; conditions: Table 4; read-out: Cdk1, activity (IC50 for kinase inhibition)
Protocol: The inhibition of Cdk1 can be determined as follows: Cdk1/cycB: Cdk1/cycB are obtained from ProQinase, Freiburg, Germany. Starfish oocytes are induced to enter M phase of the cell cycle with 10 μM 1-methyladenine and frozen in liquid nitrogen and stored at −80° C. […] Briefly, the supernatant from oocytes is equilibrated for 30 min at 4° C. under constant rotation with the p9^CKShs-sepharose beads. The beads are extensively washed and active cdk1/cycB kinase is eluted with purified p9^CKShs (3 mg/ml). […] The assay is carried with slight modifications in 96-well plates at ambient temperature for 20 min. […] The reaction is terminated by addition of 25 μl 0.05 M EDTA pH 7.0. An aliquot of 40 μl is spotted with a multichannel dispenser on Immobilon P membranes mounted in a Millipore Microtiter filter manifold connected to a low vacuum source. After elimination of liquid, the membrane is transferred to a sequence of 4 washing baths containing 0.5% H3PO4 and one with EtOH (shaking incubation for 10 min each), dried, mounted onto a Hewlett Packard TopCount manifold added 10 μl Microscint® and counted. […] Cells were seeded at 2.5×10^7 cells per 150 mm dish and allowed to attach to a 150 mm dish for 1 hr at RT. Media (SF900II containing 10% FBS) is aspirated and recombinant baculovirus; GST-C-Raf-1, v-Ras and v-Src are added at MOI of 3.0, 2.5 and 2.5 receptively in a total volume of 4-5 mL. Cells are incubated for 1 hr at RT and then 15 mL of medium is added. Infected cells are incubated for 48-72 hr at 27° C. Infected Sf21 cells are scraped and collected into a 50 mL tube and centrifuged for 10 min at 4° C. at 1100 g in a Sorvall centrifuge. The cell pellet is washed once with ice cold PBS and lysed with 0.6 mL lysis buffer per 2.5×10^7 cells. Complete lysis of cells is achieved after 10 min on ice with occasional pipetting. […] GST-c-Raf-1 was allowed to bind to the beads at 4° C. for 1 hr with rocking. Bound GST-c-Raf-1 with beads was transferred to a column. The column is washed once with lysis buffer and twice with ice cold Tris buffered saline. Ice cold elution buffer is added and column flow is stopped to allow the free glutathione to disrupt the interaction of GST-c-Raf-1 with glutathione sepharose beads. Fractions (1 mL) are collected into pre-chilled tubes. Each tube contains 10% glycerol (final concentration) to maintain kinase activity during freeze thaw cycles. Purified fractions of GST-c-Raf-1 kinase protein are stored at −80° C.

[1] = biological target: T1, human insulin receptor (Ins-R) (Homo sapiens, UniProt P06213); test: Ins-R tyrosine kinase assay, GST-Ins-R; format: biochemical; conditions: Table 4; read-out: Ins-R, activity (IC50 for kinase inhibition)
T1 construct: encoding the amino acid region 919-1343 of the intra-cytoplasmic kinase domain of the human insulin receptor; made in house; host or cells: baculovirus (Bac-to-Bac)
T1 sequence (P06213 958-1382 limits assumed): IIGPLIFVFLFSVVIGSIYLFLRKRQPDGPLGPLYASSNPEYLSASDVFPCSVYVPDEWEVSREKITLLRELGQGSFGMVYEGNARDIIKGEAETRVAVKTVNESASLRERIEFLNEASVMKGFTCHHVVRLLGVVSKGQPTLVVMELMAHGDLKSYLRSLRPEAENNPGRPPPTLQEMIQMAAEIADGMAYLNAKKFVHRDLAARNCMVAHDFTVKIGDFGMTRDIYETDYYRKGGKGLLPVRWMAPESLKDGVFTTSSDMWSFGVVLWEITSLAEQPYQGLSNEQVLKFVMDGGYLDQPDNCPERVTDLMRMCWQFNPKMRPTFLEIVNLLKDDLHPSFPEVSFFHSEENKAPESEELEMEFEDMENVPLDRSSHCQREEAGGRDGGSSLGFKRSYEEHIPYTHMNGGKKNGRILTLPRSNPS
Source text: The inhibition of IGF-1R and Ins-R can be determined as follows: The baculovirus donor vector pfbgx3IGFIRcd is used to generate a recombinant baculovirus that expresses the amino acid region 950-1337 of the mature peptide cytoplasmic domain of the human IGF-IR. To generate the cDNA fragment encoding the amino acid region 919-1343 of the intra-cytoplasmic kinase domain of the human insulin receptor, pC5hInsR is used. The fragments of the human IGF-IR and Ins-R are cloned, expressed and small-scale purified as a factor Xa-cleavable glutathione-S-transferase (GST)-fusion protein using the Bac-to-Bac™ system (GIBCO BRL) of recombinant baculovirus generation. Virus containing media is collected from the transfected cell culture and used for infection to increase its titer. Virus containing media obtained after two rounds of infection is used for large-scale protein expression. Cell extracts are prepared and loaded onto a glutathione-Sepharose (Pharmacia) column. After washing, the GST-tagged proteins are then eluted with a glutathione-containing buffer. Purified protein is stored at −70° C. in elution buffer. Tyrosine protein kinase assays with purified GST-IGF-1R and GST-ins-R are carried in a final volume of 30 μl containing 20 mM Tris-HCl, pH 7.6, 10 mM MgCl2, 0.01 mM Na3VO4, 1% DMSO, 1 mM DTT, 3 μg/ml poly(Glu,Tyr) 4:1 and 10 μM ATP (γ-[^33P]-ATP 0.1 μCi). The assay is performed in 96-well plates at ambient temperature for 20 min and terminated by addition of 25 μl 0.05 M EDTA pH 7.0. An aliquot of 40 μl is spotted with a multichannel dispenser on Whatman P81 membranes mounted in a Millipore Microtiter filter manifold connected to a low vacuum source. After elimination of liquid, the membrane is transferred to a sequence of 4 washing baths containing 0.5% H3PO4 and one with EtOH (shaking incubation for 10 min each), dried, mounted onto a Hewlett Packard TopCount manifold added 10 μl Microscint® and counted. Compounds of formula (I) show up to 90% inhibition of Ins-R at 10,000 nM, preferably between 60-90% inhibition. The inhibition of Tek can be determined as follows: The procedure of the expression, purification and assay these kinases has been described. Fabbro et al., Pharmacol. Ther. 82(2-3) 293-301 (1999). In brief, the glutathione S-transferase (GST) gene from the pAcG1 vector (Pharmingen) is excised with EcoRV and EcoRI and inserted into the cloning site of the Fast-Bac baculoviral vector (GIBCO) creating a 5530 bp vector with N-terminal cloning sites derived from the pAcG1 fusion vector (FBG0). The C-terminal cloning site may be any cloning site (from the Fast-Bac vector) downstream of the N-terminal cloning site used. N-terminally GST-fused (pAcG1, Pharmingen) KDR, Flt-1, Flk-1, Tek and PDGFR-β kinase domains are obtained from ProQinase, Freiburg, Germany. Tek is recloned into the FBG1 vector by EcoRI excision and ligation into EcoRI digested FBG1 (FBG1-Tek). The coding sequences for the whole cytoplasmic domain of c-Kit (aa 544-976) and c-Fms (aa 538-972) are amplified by PCR from human uterus and from human bone marrow cDNA libraries (Clontech), respectively. The amplified DNA fragments are fused to GST by cloning them into FBG1 as BamHI-EcoRI insertions, to yield FBG1-c-Kit and FBG1-c-Fms. Tek is recloned into the FBG0 transfer vector by EcoRI excision and ligation into EcoRI digested FBG0 (FBG-Tie2/Tek). FGFR-1 and c-met kinase domains are obtained by PCR from human A431 cells. N-terminal primers contain an overhanging EcoRI site, while C-terminal primers contain a XhoI site to aid cloning into the transfer vectors. After digestion of both the PCR fragments and FBG0 the cleavage products are gel-purified and ligated together to form the kinase constructs (FBG-Met, FBG-FGFR-1).

c-Abl kinase = biological target: T2, c-Abl kinase (Homo sapiens, UniProt P00519); test: c-Abl protein-tyrosine kinase filter binding assay; format: biochemical
T2 construct: The His-tagged kinase domain of c-Abl is cloned and expressed in the baculovirus/Sf9 system; His; made in house; host or cells: Sf9 (baculovirus)
T2 sequence (P00519 242-493 limits assumed): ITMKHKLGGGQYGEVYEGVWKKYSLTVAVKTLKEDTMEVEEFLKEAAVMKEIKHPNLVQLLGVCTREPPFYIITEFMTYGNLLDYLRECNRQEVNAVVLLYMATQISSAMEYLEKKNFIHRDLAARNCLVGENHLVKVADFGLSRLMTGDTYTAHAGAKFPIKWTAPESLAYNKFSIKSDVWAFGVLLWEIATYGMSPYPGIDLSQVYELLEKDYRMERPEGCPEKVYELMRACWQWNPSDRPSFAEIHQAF
Protocol: The His-tagged kinase domain of c-Abl is cloned and expressed in the baculovirus/Sf9 system as described by Bhat et al. in J. Biol. Chem. 1997; 272:16170-16175. A protein of 37 kD (c-Abl kinase) is purified by a two-step procedure over a Cobalt metal chelate column followed by an anion exchange column with a yield of 1-2 mg/L of Sf9 cells (Bhat et al., reference cited). The purity of the c-Abl kinase is >90% as judged by SDS-PAGE after Coomassie blue staining. The assay contains (total volume of 30 μL): c-Abl kinase (50 ng), 20 mM Tris.HCl, pH 7.5, 10 mM MgCl2, 10 μM Na3VO4, 1 mM DTT and 0.06 μCi/assay [γ^33 P]-ATP (5 μM ATP) using 30 μg/mL poly-Ala,Glu,Lys,Tyr-6:2:5:1 (Poly-AEKY, Sigma P1152) in the presence of 1% DMSO. Reactions are terminated by adding 10 μL of 250 mM EDTA and 30 μL of the reaction mixture is transferred onto Immobilon-PVDF membrane (Millipore, Bedford, Mass., USA) previously soaked for 5 min with methanol, rinsed with water, then soaked for 5 min with 0.5% H3PO4 and mounted on vacuum manifold with disconnected vacuum source. After spotting all samples, vacuum is connected and each well rinsed with 200 μL 0.5% H3PO4. Membranes are removed and washed on a shaker with 0.5% H3PO4 (4 times) and once with ethanol. Membranes are counted after drying at ambient temperature, mounting in Packard TopCount 96-well frame, and addition of 10 μL/well of Microscint™ (Packard).

human RET = biological target: T3, human RET (Homo sapiens, UniProt P07949); test: RET kinase inhibition, GST-wtRET or GST-RET-Men2B, 33P incorporation into poly(Glu,Tyr); format: biochemical; conditions: Table 4
T3 construct: fused on or other part: N-terminal GST tag (pFB-GSTX3 vector)
T3 sequence (P07949 1-1072 isoform P07949-2): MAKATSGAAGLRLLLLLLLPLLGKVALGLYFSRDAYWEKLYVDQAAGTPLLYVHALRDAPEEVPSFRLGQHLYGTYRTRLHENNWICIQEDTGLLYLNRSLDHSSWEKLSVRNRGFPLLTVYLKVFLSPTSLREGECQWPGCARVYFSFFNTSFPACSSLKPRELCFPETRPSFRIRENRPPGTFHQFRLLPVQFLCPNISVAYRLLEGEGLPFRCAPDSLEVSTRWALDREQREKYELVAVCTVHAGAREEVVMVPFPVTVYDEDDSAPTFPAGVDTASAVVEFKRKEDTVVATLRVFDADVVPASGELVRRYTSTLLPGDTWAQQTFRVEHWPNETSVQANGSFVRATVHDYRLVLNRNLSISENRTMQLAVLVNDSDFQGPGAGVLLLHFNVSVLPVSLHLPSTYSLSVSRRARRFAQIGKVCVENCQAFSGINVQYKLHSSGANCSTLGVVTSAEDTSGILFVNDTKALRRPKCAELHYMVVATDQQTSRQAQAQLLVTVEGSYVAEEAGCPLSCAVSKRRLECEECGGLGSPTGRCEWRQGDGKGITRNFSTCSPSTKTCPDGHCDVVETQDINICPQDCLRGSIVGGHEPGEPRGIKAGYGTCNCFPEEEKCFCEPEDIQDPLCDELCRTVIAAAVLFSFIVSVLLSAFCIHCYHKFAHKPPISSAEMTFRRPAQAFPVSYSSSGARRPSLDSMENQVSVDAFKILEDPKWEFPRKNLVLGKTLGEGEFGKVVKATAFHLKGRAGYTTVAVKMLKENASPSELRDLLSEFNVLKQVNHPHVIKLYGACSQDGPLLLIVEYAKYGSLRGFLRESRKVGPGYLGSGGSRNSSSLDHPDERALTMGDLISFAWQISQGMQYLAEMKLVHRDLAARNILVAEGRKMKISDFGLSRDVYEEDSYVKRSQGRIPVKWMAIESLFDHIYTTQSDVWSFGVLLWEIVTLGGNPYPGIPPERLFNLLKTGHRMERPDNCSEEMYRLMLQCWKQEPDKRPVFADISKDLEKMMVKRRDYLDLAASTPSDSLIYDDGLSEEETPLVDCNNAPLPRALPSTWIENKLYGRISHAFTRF
Protocol: The inhibition of RET is measured as follows: The baculovirus donor vector pFB-GSTX3 is used to generate a recombinant baculovirus that expresses the amino acid region 658-1072 (Swiss prot No. Q9BTB0) of the intra-cytoplasmic kinase domain of human RET-Men2A which corresponds to the wild-type kinase domain of RET (wtRET) and RET-Men2B, which differs from the wtRET by the activating mutation in the activation loop M918T. The coding sequences for the cytoplasmic domain of wtRET and RET-Men2B are amplified by PCR from the plasmids pBABEpuro RET-Men2A and pBABEpuro RET-Men2B. The amplified DNA fragments and the pFB-GSTX3 vector are made compatible for ligation by digestion with SalI and KpnI. Ligation of these DNA fragments results in the baculovirus donor plasmid pFB-GX3-RET-Men2A and pFB-GX3-RET-Men2B, respectively. Production of virus: Transfer vectors containing the kinase domains are transfected into the DH10Bac cell line (GIBCO) and plated on selective agar plates. Colonies without insertion of the fusion sequence into the viral genome (carried by the bacteria) are blue. Single, white colonies are picked and viral DNA (bacmid) are isolated from the bacteria by standard plasmid purification procedures. Sf9 cells or Sf21 (American Type Culture Collection) cells are then transfected in 25 cm^2 flasks with the viral DNA using Cellfectin reagent. Determination of small scale protein expression in Sf9 cells: Virus-containing media is collected from the transfected cell culture and used for infection to increase its titer. Virus-containing media obtained after two rounds of infection is used for large-scale protein expression. For large-scale protein expression 100 cm^2 round tissue culture plates are seeded with 5×10^7 cells/plate and infected with 1 mL of virus-containing media (approximately 5 MOIs). After 3 days, the cells are scraped off the plate and centrifuged at 500 rpm for 5 minutes. Cell pellets from 10-20, 100 cm^2 plates, are re-suspended in 50 mL of ice-cold lysis buffer (25 mM tris-HCl, pH 7.5, 2 mM EDTA, 1% NP-40, 1 mM DTT, 1 mM P MSF). The cells are stirred on ice for 15 minutes and then centrifuged at 5,000 rpms for 20 minutes. Purification of GST-tagged proteins: The centrifuged cell lysate is loaded onto a 2 mL glutathione-sepharose column (Pharmacia) and is washed 3× with 10 mL of 25 mM tris-HCl, pH 7.5, 2 mM EDTA, 1 mM DTT, 200 mM NaCl. The GST-tagged proteins are then eluted by 10 applications (1 mL each) of 25 mM tris-HCl, pH 7.5, 10 mM reduced-glutathione, 100 mM NaCl, 1 mM DTT, 10% glycerol and stored at −70° C. Measure of enzyme activity: Tyrosine protein kinase assays with either purified GST-wtRET or GST-RET-Men2B protein are carried out in a final volume of 30 μL containing 15 ng of either GST-wtRET or GST-RET-Men2B protein, 20 mM tris-HCl, pH 7.5, 1 mM MnCl2, 10 mM MgCl2, 1 mM DTT, 3 μg/mL poly(Glu,Tyr) 4:1, 1% DMSO, 2.0 μM ATP (γ-[^33P]-ATP 0.1 μCi). The activity is assayed in the presence or absence of inhibitors, by measuring the incorporation of ^33P from [γ^33P] ATP into poly(Glu,Tyr) 4:1. The assay is carried out in 96-well plates at ambient temperature for 15 minutes under conditions described below and terminated by the addition of 20 μL of 125 mM EDTA. Subsequently, 40 μL of the reaction mixture are transferred onto Immobilon-PVDF membrane (Millipore) previously soaked for 5 minutes with methanol, rinsed with water, then soaked for 5 minutes with 0.5% H3PO4 and mounted on vacuum manifold with disconnected vacuum source. After spotting all samples, vacuum is connected and each well-rinsed with 200 μL 0.5% H3PO4. Membranes are removed and washed 4× on a shaker with 1.0% H3PO4, once with ethanol. Membranes are counted after drying at ambient temperature, mounting in Packard TopCount 96-well frame, and addition of 10 μL/well of Microscint™ (Packard). IC50 values are calculated by linear regression analysis of the percentage inhibition of each compound in duplicate, at 4 concentrations (usually 0.01, 0.1, 1 and 10 μM). […]

| IC50 (Cdk1/cycB) | IC50 [1] | SMILES | IC50 (c-Abl kinase) | IC50 (human RET) |
| --- | --- | --- | --- | --- |
| < 10 µM | < 10 µM | Nc1cc(-c2ccccc2)nc2c(Br)cnn12 [Example 18, 3-Bromo-5-phenyl-pyrazolo[1,5-a]pyrimidin-7-ylamine] |  |  |
|  |  | CN1CCN(c2ccc(-c3cnn4c(N)c(-c5ccc(O)cc5)cnc34)cc2)CC1 [Example 35, 4-{7-Amino-3-[4-(4-methyl-piperazin-1-yl)-phenyl]-pyrazolo[1,5-a]pyrimidin-6-yl}-phenol] | < 10 µM | < 10 µM |
|  |  | Cc1nn2c(N)c(-c3cccc(O)c3)cnc2c1-c1ccc(N2CCN(C)CC2)cc1 [Example 61a, 3-{7-Amino-2-methyl-3-[4-(4-methyl-piperazin-1-yl)phenyl]-pyrazolo[1,5-a]pyrimidin-6-yl}-phenol] |  | < 10 µM |
